Test results reported in ChEMBL document CHEMBL1201862, “PubChem BioAssay data set” (2004).
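48-hour exposure; five concentrations; linearly interpolated endpoints. The concentration for 50% growth inhibition is given as GI50.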 Activity calls are given as the source filed them. Rule as the data show it: active = GI50 up to about 1.1 µM and inactive = higher.

Tests used:
Test in all cases: DTP human tumour cell line panel, 48 h
[1] = test system: KM12
[2] = test system: MCF7
[3] = test system: LOX IMVI
[4] = test system: PC-3
[5] = test system: SN12C
[6] = test system: NCI-H226
[7] = test system: NCI/ADR-RES
[8] = test system: SK-MEL-28
[9] = test system: OVCAR-8
[10] = test system: SR
[11] = test system: BT-549
[12] = test system: 786-0
[13] = test system: HL-60
[14] = test system: HCT-15
[15] = test system: U-251
[16] = test system: UO-31
[17] = test system: IGROV-1
[18] = test system: HOP-92
[19] = test system: SNB-19
[20] = test system: HOP-62
[21] = test system: HCC 2998
[22] = test system: EKVX
[23] = test system: A549
[24] = test system: SK-MEL-5
[25] = test system: SNB-75
[26] = test system: RPMI-8226
[27] = test system: DU-145
[28] = test system: CCRF-CEM
[29] = test system: NCI-H23
[30] = test system: HT-29
[31] = test system: SF-539
[32] = test system: ACHN
[33] = test system: OVCAR-4
[34] = test system: SK-MEL-2
[35] = test system: HCT-116
[36] = test system: Malme-3M
[37] = test system: MDA-N
[38] = test system: CAKI-1
[39] = test system: MDA-MB-435
[40] = test system: RXF 393
[41] = test system: UACC-257
[42] = test system: SF-268
[43] = test system: NCI-H460
[44] = test system: SF-295
[45] = test system: MDA-MB-231
[46] = test system: A498
[47] = test system: TK-10
[48] = test system: OVCAR-3
[49] = test system: K562
[50] = test system: M14
[51] = test system: MOLT-4
[52] = test system: OVCAR-5
[53] = test system: COLO 205
[54] = test system: SW-620
[55] = test system: T47D
[56] = test system: SK-OV-3
[57] = test system: NCI-H522
[58] = test system: UACC-62
[59] = test system: Hs-578T

`CC(C)C1OC(=O)/C=C/C=C/C=C/C=C/C=C/CC(O)CC(O)CC(O)CC(O)CC(O)CC(O)CC(O)CC(O)/C=C/C1C` (stereo not given) was tested, and the GI50 [1] was > 100 µM (inactive), the GI50 [2] was > 100 µM (inactive) and the GI50 [3] was > 100 µM (inactive). For the same compound, the GI50 [4] was > 100 µM (inactive), the GI50 [5] was > 100 µM (inactive) and the GI50 [6] was > 100 µM (inactive). The GI50 [7] was > 100 µM (inactive), the GI50 [8] was > 100 µM (inactive) and the GI50 [9] was > 100 µM (inactive). The GI50 [10] was > 100 µM (inactive), the GI50 [11] was > 100 µM (inactive) and the GI50 [12] was > 100 µM (inactive). The GI50 [13] was > 100 µM (inactive), the GI50 [14] was > 100 µM and the GI50 [15] was > 100 µM (inactive). For the same compound, the GI50 [16] was > 100 µM (inactive), the GI50 [17] was > 100 µM (inactive) and the GI50 [18] was > 100 µM (inactive). The GI50 [19] was > 100 µM (inactive), the GI50 [20] was > 100 µM (inactive) and the GI50 [21] was > 100 µM (inactive). The GI50 [22] was > 100 µM (inactive), the GI50 [23] was > 100 µM (inactive) and the GI50 [24] was > 100 µM (inactive). For the same compound, the GI50 [25] was > 100 µM (inactive), the GI50 [26] was > 100 µM (inactive) and the GI50 [27] was > 100 µM (inactive). The GI50 [28] was > 100 µM (inactive), the GI50 [29] was > 100 µM (inactive) and the GI50 [30] was > 100 µM (inactive). The GI50 [31] was > 100 µM (inactive), the GI50 [32] was > 100 µM (inactive) and the GI50 [33] was > 100 µM (inactive). The GI50 [34] was > 100 µM (inactive), the GI50 [35] was > 100 µM (inactive) and the GI50 [36] was > 100 µM (inactive). The GI50 [37] was > 100 µM (inactive), the GI50 [38] was > 100 µM (inactive) and the GI50 [39] was > 100 µM (inactive). For the same compound, the GI50 [40] was 73.8 µM (inactive), the GI50 [41] was > 100 µM (inactive) and the GI50 [42] was > 100 µM (inactive). For the same compound, the GI50 [43] was > 100 µM (inactive), the GI50 [44] was > 100 µM (inactive) and the GI50 [45] was > 100 µM (inactive). The GI50 [46] was > 100 µM (inactive), the GI50 [47] was > 100 µM (inactive) and the GI50 [48] was > 100 µM (inactive). For the same compound, the GI50 [49] was > 100 µM (inactive), the GI50 [50] was > 100 µM (inactive) and the GI50 [51] was > 100 µM (inactive). The GI50 [52] was > 100 µM (inactive), the GI50 [53] was > 100 µM (inactive) and the GI50 [54] was > 100 µM (inactive).

For `CCn1c(=O)c2nc(SC)sc2n(-c2ccccc2)c1=S`, the GI50 [1] was 49.9 µM (inactive), the GI50 [2] was 76.4 µM (inactive) and the GI50 [3] was 42.5 µM (inactive). For the same compound, the GI50 [55] was 55.7 µM (inactive), the GI50 [4] was 30.7 µM (inactive) and the GI50 [5] was 86.9 µM (inactive). For the same compound, the GI50 [6] was 41 µM (inactive), the GI50 [7] was 44.5 µM (inactive) and the GI50 [8] was > 100 µM (inactive). The GI50 [9] was 68.7 µM (inactive), the GI50 [56] was 94.6 µM (inactive) and the GI50 [10] was > 100 µM (inactive). For the same compound, the GI50 [12] was > 100 µM (inactive), the GI50 [13] was 3.08 µM (inactive) and the GI50 [14] was 79.4 µM. The GI50 [15] was > 100 µM (inactive), the GI50 [16] was 16.6 µM (inactive) and the GI50 [17] was > 100 µM (inactive). The GI50 [18] was 55.5 µM (inactive), the GI50 [19] was 89.1 µM (inactive) and the GI50 [20] was > 100 µM (inactive). The GI50 [57] was 79.3 µM (inactive), the GI50 [21] was > 100 µM (inactive) and the GI50 [22] was > 100 µM (inactive). The GI50 [23] was 98.9 µM (inactive), the GI50 [24] was 39.4 µM (inactive) and the GI50 [58] was 38 µM (inactive). For the same compound, the GI50 [25] was 91.2 µM (inactive), the GI50 [26] was 74.6 µM (inactive) and the GI50 [27] was > 100 µM (inactive). The GI50 [28] was 19.6 µM (inactive), the GI50 [29] was 46.8 µM (inactive) and the GI50 [30] was 47.2 µM (inactive). The GI50 [31] was 69.2 µM (inactive), the GI50 [32] was 43.9 µM (inactive) and the GI50 [33] was > 100 µM (inactive). The GI50 [34] was 28.6 µM (inactive), the GI50 [35] was 58.7 µM (inactive) and the GI50 [36] was > 100 µM (inactive). The GI50 [37] was 47.2 µM (inactive), the GI50 [39] was 46.7 µM (inactive) and the GI50 [40] was 67.3 µM (inactive). For the same compound, the GI50 [41] was > 100 µM (inactive), the GI50 [42] was > 100 µM (inactive) and the GI50 [43] was 37.8 µM (inactive). The GI50 [44] was > 100 µM (inactive), the GI50 [45] was > 100 µM (inactive) and the GI50 [59] was 40.3 µM (inactive). For the same compound, the GI50 [47] was > 100 µM (inactive), the GI50 [48] was 68.5 µM (inactive) and the GI50 [49] was 11.3 µM (inactive). For the same compound, the GI50 [50] was 65.3 µM (inactive), the GI50 [51] was 31.6 µM (inactive) and the GI50 [52] was > 100 µM (inactive). For the same compound, the GI50 [53] was > 10 µM (inactive) and the GI50 [54] was 93.1 µM (inactive).
